Our source for the drug sensitivity score values is the supplement of paper PMC11616607.

The subject of the first experiment is HOSE1C. The experiment can be described thus: drug sensitivity score (DSS) from 5-point dose-response viability curve (DSS (area-under-curve based score)); higher = more sensitive (stronger growth inhibition or killing); extreme values may be limits of the assay. The conditions noted are these: exposure time: 72 h; concentration range: 5 concentrations over 10,000-fold range. A digest of the protocol: (§1)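 Ovarian cancer and normal ovarian cell lines were tested in 384-well plates. Drugs were acoustically dispensed (Echo 550) in DMSO or water at five concentrations spanning a 10,000-fold range, then 1,500 cells per well were added and incubated 3 days at 37°C, 5% CO2. Viability was read by CellTiter-Glo luminescence on a PHERAstar FS. Drug sensitivity score was derived per cell line and drug with Breeze software; higher means more sensitive, zero means no response.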
In the case of `CC(C)(C)C[C@@H]1N[C@@H](C(=O)N[C@H]2CC[C@H](O)CC2)[C@H](c2cccc(Cl)c2F)[C@]12C(=O)Nc1cc(Cl)ccc12`, the drug sensitivity score stood at 14.7. Still for that read-out and setting: the same measure for `CC(C)Oc1ccc(C(=O)N[C@H](CNC(=O)CN(C)C)Cc2ccc(-c3cn4cccc([C@H](C)O)c4n3)cc2)cc1Cl`: 14.1; for `CC[C@@H]1[C@H](F)C(=O)N[C@@H]1COc1nccc2cc(C(N)=O)c(OC)cc12`: 0; for `CCc1cncnc1N1CCN(Cc2nc3ccc(C(F)(F)F)cc3[nH]2)CC1`: 0. `CCn1c(-c2nonc2N)nc2cnc(Oc3cccc(NC(=O)c4ccc(OCCN5CCOCC5)cc4)c3)cc21`: the drug sensitivity score turned out to be 12.7. Molecule `CN(C)CC#Cc1ccc(OCCCc2sc(N3CCc4cccc(C(=O)Nc5nc6ccccc6s5)c4C3)nc2C(=O)O)c(F)c1` showed a drug sensitivity score of 22.7. On the same count and under the same terms, the same measure for `CN(c1ncccc1CNc1nc(Nc2ccc3c(c2)CC(=O)N3)ncc1C(F)(F)F)S(C)(=O)=O`: 4.6; for `CNC(=O)c1ccc(C)c(-n2c(C)cc(OCc3ccc(F)cc3F)c(Br)c2=O)c1`: 0. Same read-out and setting: the same measure for `CNS(=O)(=O)Nc1nccc(Cc2c(C)c3ccc(Oc4ncccn4)cc3oc2=O)c1F`: 0. In turn, `CNc1ncc2cc(-c3cc(NC(=O)NCCC(C)(C)C)c(F)cc3C)c(C)nc2n1` displayed a drug sensitivity score of 4.2. The same measure, in the same setting: next, `CO[C@@H](C)Cn1c(=O)n(C)c2cnc3ccc(-c4cncc(C(C)(C)O)c4)cc3c21`: 15.1. `COc1ccc(Cn2ccc3ccc(C(=O)NO)cc32)cc1`: the drug sensitivity score came to 2.5. In turn, `C[C@@H](Oc1ccc2[nH]nc(/C=C/c3cnn(CCO)c3)c2c1)c1c(Cl)cncc1Cl` registered a drug sensitivity score of 8.5. On the same count and under the same terms, next, `C[C@@H]1CN(CC(=O)Nc2ccc3c(c2)Cc2cccc(-c4cc(=O)cc(N5CCOCC5)o4)c2S3)C[C@H](C)O1`: 0; `C[C@H]1C[C@@H](n2c(Nc3ccc(OC(F)(F)F)cc3)nc3cc(CCC(=O)O)ccc32)CC(C)(C)C1`: 0. Still for that read-out and setting: next, `Cc1c(-c2c(-c3ccc(F)o3)sc3ncnc(O[C@H](Cc4ccccc4OCc4ccnn4CC(F)(F)F)C(=O)O)c23)ccc(OCCN2CCN(C)CC2)c1Cl`: 0. Same read-out and setting: the same measure for `Cc1c(Cn2c(C)nc3c(C(=O)O)cc(N4CCOCC4)cc32)cccc1C(F)(F)F`: 1.2; for `Cc1ccc(C(=O)N(CCCN)[C@@H](c2oc3cc(Cl)ccc3c(=O)c2Cc2ccccc2)C(C)C)cc1`: 15.8; for `Cc1cccc(CC(=O)N2CCc3c2ccc(-c2cn(C)c4ncnc(N)c24)c3F)n1`: 0. With `Cc1nc(Nc2n[nH]c3c2CN(C(=O)N[C@H](CN(C)C)c2ccccc2)C3(C)C)c2sccc2n1`, the drug sensitivity score was 20.6.

Molecule `Cc1ncc(Cl)cc1NCc1ccc(C(=O)N[C@@H](CC2CCCC2)C(=O)NC2CC2)s1` displayed a drug sensitivity score of 0. Molecule `Cn1cc(-c2ccc(F)c(C(F)(F)F)c2)nc1C1CCN(c2ncnc3[nH]ncc23)CC1` had a drug sensitivity score of 1.9. Take `Cn1cc(C2=Nc3cc(NC(=O)C(N)C4CCCCC4)cc4c3C2=CNNC4=O)cn1` (stereo not drawn): the drug sensitivity score was 13.5. On the same count and under the same terms, next, `N#Cc1ccc(COC[C@H]2O[C@@H](n3c(NCc4ccc(Cl)c(Cl)c4)nc4c(N)ncnc43)[C@H](O)[C@@H]2O)cc1`: 2.7; `NCC(=O)Nc1ccc(-n2nc(C(F)(F)F)cc2-c2ccc3c(ccc4ccccc43)c2)cc1`: 21.7; `NC[C@@](O)(c1ccc(Cl)cc1)c1ccc(-c2cn[nH]c2)cc1`: 8.6. On the same count and under the same terms, next, `Nc1nccc(-c2c(-c3ccc(F)cc3)ncn2C2CCCCC2)n1`: 1.6; `Nc1ncnc2c1c(COc1cccc(Cl)c1)nn2C1CCOCC1`: 0.

In the case of `O=C(NOC[C@H](O)CO)c1ccc(F)c(F)c1Nc1ccc(I)cc1F`, the drug sensitivity score turned out to be 0.

As for `O=C(Nc1ccc2[nH]nc(-c3ccncc3)c2c1)[C@@H]1CCN(CC(=O)N2CCN(c3ccc(-c4ncccn4)cc3)CC2)C1`, the drug sensitivity score was 0.2.

In turn, `O=C(O)c1ccc(-c2c[nH]c3ncc(-c4ccccc4)cc23)cc1C1CCCC1` came in with a drug sensitivity score of 0.

With `O=C(O)c1ccc(CN2CCC(CN[C@@H]3C[C@H]3c3ccccc3)CC2)cc1`, the drug sensitivity score was found to be 0.

For a further experiment, the system named is JHOS2. The description is as above. The conditions noted are these: exposure time: 72 h; concentration range: 5 concentrations over 10,000-fold range. An outline of the steps: as §1
`CC(C)(C)C[C@@H]1N[C@@H](C(=O)N[C@H]2CC[C@H](O)CC2)[C@H](c2cccc(Cl)c2F)[C@]12C(=O)Nc1cc(Cl)ccc12` returned a drug sensitivity score of 0. On the same count and under the same terms, next, `CC(C)Oc1ccc(C(=O)N[C@H](CNC(=O)CN(C)C)Cc2ccc(-c3cn4cccc([C@H](C)O)c4n3)cc2)cc1Cl`: 7.2. For the molecule `CC[C@@H]1[C@H](F)C(=O)N[C@@H]1COc1nccc2cc(C(N)=O)c(OC)cc12`, the drug sensitivity score amounted to 1.3. On the same count and under the same terms, the same measure for `CCc1cncnc1N1CCN(Cc2nc3ccc(C(F)(F)F)cc3[nH]2)CC1`: 0.8.

In the case of `CCn1c(-c2nonc2N)nc2cnc(Oc3cccc(NC(=O)c4ccc(OCCN5CCOCC5)cc4)c3)cc21`, the drug sensitivity score was found to be 2.8.

Take `CN(C)CC#Cc1ccc(OCCCc2sc(N3CCc4cccc(C(=O)Nc5nc6ccccc6s5)c4C3)nc2C(=O)O)c(F)c1`: the drug sensitivity score came out at 1.2.

Regarding `CN(c1ncccc1CNc1nc(Nc2ccc3c(c2)CC(=O)N3)ncc1C(F)(F)F)S(C)(=O)=O`, the drug sensitivity score stood at 5.1. Same read-out and setting: next, `CNC(=O)c1ccc(C)c(-n2c(C)cc(OCc3ccc(F)cc3F)c(Br)c2=O)c1`: 0; `CNS(=O)(=O)Nc1nccc(Cc2c(C)c3ccc(Oc4ncccn4)cc3oc2=O)c1F`: 0; `CNc1ncc2cc(-c3cc(NC(=O)NCCC(C)(C)C)c(F)cc3C)c(C)nc2n1`: 10.3. The same measure, in the same setting: the same measure for `CO[C@@H](C)Cn1c(=O)n(C)c2cnc3ccc(-c4cncc(C(C)(C)O)c4)cc3c21`: 7.8.

For `COc1ccc(Cn2ccc3ccc(C(=O)NO)cc32)cc1`, the drug sensitivity score came out at 0.1. Still for that read-out and setting: the same measure for `C[C@@H](Oc1ccc2[nH]nc(/C=C/c3cnn(CCO)c3)c2c1)c1c(Cl)cncc1Cl`: 2; for `C[C@@H]1CN(CC(=O)Nc2ccc3c(c2)Cc2cccc(-c4cc(=O)cc(N5CCOCC5)o4)c2S3)C[C@H](C)O1`: 0; for `C[C@H]1C[C@@H](n2c(Nc3ccc(OC(F)(F)F)cc3)nc3cc(CCC(=O)O)ccc32)CC(C)(C)C1`: 0. With `Cc1c(-c2c(-c3ccc(F)o3)sc3ncnc(O[C@H](Cc4ccccc4OCc4ccnn4CC(F)(F)F)C(=O)O)c23)ccc(OCCN2CCN(C)CC2)c1Cl`, the drug sensitivity score was found to be 0.
